± gives the standard deviation of the averaged measurements.
Tests used:
[1] = compound: COc1cc2c(Oc3ccc(NC(=O)C4(C(=O)Nc5ccc(F)cc5)CC4)cc3F)ccnc2cc1OCCCN1CCOCC1 [FORETINIB]; assay: surviving fraction relative to DMSO-only wells; higher = less growth inhibition; conditions: exposure time: 5 days
Outline: (§1)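 Log-phase tumour cells were seeded at 250–500 per well in 384-well plates and, from 24 hours after seeding, exposed continuously for five days to inhibitors at 0.5, 1, 5, 10, 50, 100, 500 and 1000 nM. Surviving fraction is CellTiter-Glo luminescence normalised to the median of DMSO-only wells. Luminescence was measured after 10 minutes at room temperature, and only lines screened three times with replicate Pearson r >0.7 and median Z' >0.3 were kept.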

[2] = compound: COc1cc2ncnc(Nc3ccc(F)c(Cl)c3)c2cc1NC(=O)/C=C/CN1CCCCC1; assay: as above; conditions: exposure time: 5 days
Outline: as §1

HCC78 LUNG
surviving fraction ([1]; 0.5 nM): 0.779 ± 0.1
surviving fraction ([1]; 1 nM): 0.92 ± 0.14
surviving fraction ([1]; 5 nM): 0.89 ± 0.12
surviving fraction ([1]; 10 nM): 0.752 ± 0.091
surviving fraction ([1]; 50 nM): 0.257 ± 0.06
surviving fraction ([1]; 100 nM): 0.259 ± 0.039
surviving fraction ([1]; 500 nM): 0.179 ± 0.025
surviving fraction ([1]; 1000 nM): 0.0403 ± 0.0068
surviving fraction ([2]; 0.5 nM): 0.902 ± 0.2
surviving fraction ([2]; 1 nM): 0.733 ± 0.13
surviving fraction ([2]; 5 nM): 0.87 ± 0.051
surviving fraction ([2]; 10 nM): 0.827 ± 0.21
surviving fraction ([2]; 50 nM): 0.749 ± 0.12
surviving fraction ([2]; 100 nM): 0.857 ± 0.086
surviving fraction ([2]; 500 nM): 0.595 ± 0.23
surviving fraction ([2]; 1000 nM): 0.447 ± 0.02

HOS BONE
surviving fraction ([1]; 0.5 nM): 1.014 ± 0.0075
surviving fraction ([1]; 1 nM): 1.01 ± 0.012
surviving fraction ([1]; 5 nM): 1.057 ± 0.0045
surviving fraction ([1]; 10 nM): 1.01 ± 0.022
surviving fraction ([1]; 50 nM): 1.02 ± 0.075
surviving fraction ([1]; 100 nM): 1.02 ± 0.036
surviving fraction ([1]; 500 nM): 0.55 ± 0.024
surviving fraction ([1]; 1000 nM): 0.451 ± 0.013
surviving fraction ([2]; 0.5 nM): 1.017 ± 0.0078
surviving fraction ([2]; 1 nM): 1 ± 0.018
surviving fraction ([2]; 5 nM): 1.02 ± 0.017
surviving fraction ([2]; 10 nM): 1.02 ± 0.015
surviving fraction ([2]; 50 nM): 1.05 ± 0.019
surviving fraction ([2]; 100 nM): 1.04 ± 0.023
surviving fraction ([2]; 500 nM): 0.951 ± 0.057
surviving fraction ([2]; 1000 nM): 0.888 ± 0.032

SJSA1 BONE
surviving fraction ([1]; 0.5 nM): 1.14 ± 0.026
surviving fraction ([1]; 1 nM): 1.7 ± 0.03
surviving fraction ([1]; 5 nM): 1.69 ± 0.15
surviving fraction ([1]; 10 nM): 1.74 ± 0.063
surviving fraction ([1]; 50 nM): 1.48 ± 0.1
surviving fraction ([1]; 100 nM): 1.74 ± 0.075
surviving fraction ([1]; 500 nM): 1.46 ± 0.069
surviving fraction ([1]; 1000 nM): 1.83 ± 0.038
surviving fraction ([2]; 0.5 nM): 1.04 ± 0.071
surviving fraction ([2]; 1 nM): 1.08 ± 0.072
surviving fraction ([2]; 5 nM): 1.05 ± 0.053
surviving fraction ([2]; 10 nM): 1.09 ± 0.016
surviving fraction ([2]; 50 nM): 1.1 ± 0.043
surviving fraction ([2]; 100 nM): 1.14 ± 0.074
surviving fraction ([2]; 500 nM): 1.04 ± 0.072
surviving fraction ([2]; 1000 nM): 1.01 ± 0.03

HCC1395 BREAST
surviving fraction ([1]; 0.5 nM): 1.07 ± 0.09
surviving fraction ([1]; 1 nM): 1.08 ± 0.11
surviving fraction ([1]; 5 nM): 1.26 ± 0.076
surviving fraction ([1]; 10 nM): 1.17 ± 0.048
surviving fraction ([1]; 50 nM): 1.09 ± 0.083
surviving fraction ([1]; 100 nM): 1.02 ± 0.034
surviving fraction ([1]; 500 nM): 0.939 ± 0.063
surviving fraction ([1]; 1000 nM): 0.796 ± 0.085
surviving fraction ([2]; 0.5 nM): 0.92 ± 0.09
surviving fraction ([2]; 1 nM): 0.93 ± 0.037
surviving fraction ([2]; 5 nM): 1.08 ± 0.099
surviving fraction ([2]; 10 nM): 1.03 ± 0.036
surviving fraction ([2]; 50 nM): 1.05 ± 0.16
surviving fraction ([2]; 100 nM): 1.01 ± 0.21
surviving fraction ([2]; 500 nM): 0.896 ± 0.14
surviving fraction ([2]; 1000 nM): 0.809 ± 0.15

CAL51 BREAST
surviving fraction ([1]; 0.5 nM): 0.991 ± 0.039
surviving fraction ([1]; 1 nM): 0.964 ± 0.053
surviving fraction ([1]; 5 nM): 1.04 ± 0.011
surviving fraction ([1]; 10 nM): 0.9858 ± 0.0063
surviving fraction ([1]; 50 nM): 0.993 ± 0.064
surviving fraction ([1]; 100 nM): 0.979 ± 0.052
surviving fraction ([1]; 500 nM): 0.162 ± 0.0044
surviving fraction ([1]; 1000 nM): 0.136 ± 0.01
surviving fraction ([2]; 0.5 nM): 0.985 ± 0.05
surviving fraction ([2]; 1 nM): 1.03 ± 0.076
surviving fraction ([2]; 5 nM): 1 ± 0.086
surviving fraction ([2]; 10 nM): 0.968 ± 0.031
surviving fraction ([2]; 50 nM): 1.03 ± 0.08
surviving fraction ([2]; 100 nM): 1.02 ± 0.1
surviving fraction ([2]; 500 nM): 0.9793 ± 0.0063
surviving fraction ([2]; 1000 nM): 0.848 ± 0.027

MDAMB157 BREAST
surviving fraction ([1]; 0.5 nM): 0.967 ± 0.045
surviving fraction ([1]; 1 nM): 0.987 ± 0.035
surviving fraction ([1]; 5 nM): 1.1 ± 0.095
surviving fraction ([1]; 10 nM): 0.975 ± 0.0044
surviving fraction ([1]; 50 nM): 0.971 ± 0.074
surviving fraction ([1]; 100 nM): 0.934 ± 0.081
surviving fraction ([1]; 500 nM): 0.537 ± 0.085
surviving fraction ([1]; 1000 nM): 0.231 ± 0.02
surviving fraction ([2]; 0.5 nM): 0.951 ± 0.025
surviving fraction ([2]; 1 nM): 0.894 ± 0.018
surviving fraction ([2]; 5 nM): 1 ± 0.046
surviving fraction ([2]; 10 nM): 0.964 ± 0.056
surviving fraction ([2]; 50 nM): 0.95 ± 0.094
surviving fraction ([2]; 100 nM): 0.864 ± 0.051
surviving fraction ([2]; 500 nM): 0.887 ± 0.1
surviving fraction ([2]; 1000 nM): 0.63 ± 0.095

SG43 HEADNECK
surviving fraction ([1]; 0.5 nM): 1.03 ± 0.26
surviving fraction ([1]; 1 nM): 0.918 ± 0.14
surviving fraction ([1]; 5 nM): 0.678 ± 0.063
surviving fraction ([1]; 10 nM): 0.732 ± 0.032
surviving fraction ([1]; 50 nM): 0.727 ± 0.15
surviving fraction ([1]; 100 nM): 0.883 ± 0.12
surviving fraction ([1]; 500 nM): 0.545 ± 0.11
surviving fraction ([1]; 1000 nM): 0.247 ± 0.076
surviving fraction ([2]; 0.5 nM): 0.807 ± 0.14
surviving fraction ([2]; 1 nM): 0.929 ± 0.044
surviving fraction ([2]; 5 nM): 0.529 ± 0.18
surviving fraction ([2]; 10 nM): 0.341 ± 0.057
surviving fraction ([2]; 50 nM): 0.199 ± 0.018
surviving fraction ([2]; 100 nM): 0.226 ± 0.022
surviving fraction ([2]; 500 nM): 0.281 ± 0.095
surviving fraction ([2]; 1000 nM): 0.196 ± 0.057

MDAMB231 BREAST
surviving fraction ([1]; 0.5 nM): 0.974 ± 0.018
surviving fraction ([1]; 1 nM): 0.985 ± 0.013
surviving fraction ([1]; 5 nM): 0.998 ± 0.017
surviving fraction ([1]; 10 nM): 1 ± 0.03
surviving fraction ([1]; 50 nM): 0.971 ± 0.0077
surviving fraction ([1]; 100 nM): 0.9367 ± 0.0039
surviving fraction ([1]; 500 nM): 0.489 ± 0.0095
surviving fraction ([1]; 1000 nM): 0.449 ± 0.0084
surviving fraction ([2]; 0.5 nM): 1.03 ± 0.024
surviving fraction ([2]; 1 nM): 1.02 ± 0.024
surviving fraction ([2]; 5 nM): 1.05 ± 0.019
surviving fraction ([2]; 10 nM): 1.047 ± 0.01
surviving fraction ([2]; 50 nM): 1.02 ± 0.035
surviving fraction ([2]; 100 nM): 1 ± 0.024
surviving fraction ([2]; 500 nM): 0.692 ± 0.022
surviving fraction ([2]; 1000 nM): 0.488 ± 0.039

CAL72 BONE
surviving fraction ([1]; 0.5 nM): 1.1 ± 0.12
surviving fraction ([1]; 1 nM): 1.08 ± 0.12
surviving fraction ([1]; 5 nM): 1.13 ± 0.016
surviving fraction ([1]; 10 nM): 1.11 ± 0.12
surviving fraction ([1]; 50 nM): 1.17 ± 0.069
surviving fraction ([1]; 100 nM): 1.13 ± 0.041
surviving fraction ([1]; 500 nM): 0.655 ± 0.13
surviving fraction ([1]; 1000 nM): 0.326 ± 0.088
surviving fraction ([2]; 0.5 nM): 1.08 ± 0.014
surviving fraction ([2]; 1 nM): 1.06 ± 0.042
surviving fraction ([2]; 5 nM): 1.08 ± 0.062
surviving fraction ([2]; 10 nM): 1.03 ± 0.024
surviving fraction ([2]; 50 nM): 1.06 ± 0.055
surviving fraction ([2]; 100 nM): 1.07 ± 0.034
surviving fraction ([2]; 500 nM): 0.943 ± 0.019
surviving fraction ([2]; 1000 nM): 0.818 ± 0.017

VP229 BREAST
surviving fraction ([1]; 0.5 nM): 1.31 ± 0.085
surviving fraction ([1]; 1 nM): 1.09 ± 0.11
surviving fraction ([1]; 5 nM): 1.13 ± 0.14
surviving fraction ([1]; 10 nM): 1.07 ± 0.1
surviving fraction ([1]; 50 nM): 1.14 ± 0.11
surviving fraction ([1]; 100 nM): 1.05 ± 0.15
surviving fraction ([1]; 500 nM): 0.808 ± 0.14
surviving fraction ([1]; 1000 nM): 0.616 ± 0.15
surviving fraction ([2]; 0.5 nM): 1.02 ± 0.1
surviving fraction ([2]; 1 nM): 1.18 ± 0.056
surviving fraction ([2]; 5 nM): 0.663 ± 0.12
surviving fraction ([2]; 10 nM): 0.638 ± 0.086
surviving fraction ([2]; 50 nM): 0.306 ± 0.011
surviving fraction ([2]; 100 nM): 0.287 ± 0.026
surviving fraction ([2]; 500 nM): 0.2307 ± 0.00058
surviving fraction ([2]; 1000 nM): 0.191 ± 0.029

— the supplement of paper PMC6045584
